Assays:
[1] = test system: SD rats; experiment: application of test substance onto dehaired abdominal skin of fattened SD rats for 2 weeks; weight of each fat measured; format: in vivo, rat; conditions: applied onto abdominal skin, 2 ml of 5 mg/ml ethanol solution daily for 2 weeks, n=3, p<0.05
[2] = orally administered, approximately 120 mg/day over 8 weeks; cited from earlier work

Structure (SMILES): CC(C)[C@H](C)CC[C@@H](C)[C@H]1CC[C@H]2[C@@H]3CC=C4CC(=O)CC[C@]4(C)[C@H]3CC[C@]12C [campest-5-en-3-one]
- reduction of the amount of subcutaneous fat compared with the control (ethanol solution) [1]: approximately 16%
- subcutaneous fat reduction percentage [2]: 26%

Reference: US20210177868A1, “NOVEL USE OF PHYTOSTENONE” (Daisankasei Co., Ltd., priority 2018, published 2021)
